Results on seven compounds are retold here after patent US11109593B2, “Isoxazolin-5-one derivative and herbicide containing same as active ingredient” (HOKKO CHEMICAL INDUSTRY CO., LTD., priority 2017, dated 2021).

Common to all, as to type: in vivo
Experiment [1] concerns Chenopodium album. Briefly: Test Example 4: herbicidal effect test by treatment of leave and stem in dry field farming (seven days after seeding). As to conditions: 120 g/10a active ingredient; emulsion sprayed seven days after seeding; evaluated 14 days after treatment. In a few lines:
(§1)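 Duplicate pots were scored 14 days post-spray by dry weight, herbicidal rate = {1 − treated/untreated average dry weight} × 100. The water-diluted emulsion, equivalent to 120 g active ingredient per 10 ares in 100 L, was applied seven days after sowing 20 seeds each into the upper 1 cm of alluvial soil.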

The test system of experiment [2] is southern crabgrass. The experiment is described as above. The conditions noted are these: 120 g/10a active ingredient; emulsion sprayed seven days after seeding; evaluated 14 days after treatment. In a few lines: as §1
In experiment [3] the test system is Echinochloa crus-galli. The experiment is described as above. As to conditions: 120 g/10a active ingredient; emulsion sprayed seven days after seeding; evaluated 14 days after treatment. The procedure, abridged: as §1
The subject of experiment [4] is Amaranthus viridis. Described as above. As to conditions: 120 g/10a active ingredient; emulsion sprayed seven days after seeding; evaluated 14 days after treatment. The procedure, abridged:
as §1

In experiment [5] the test system is Scirpus juncoides. Briefly: Test Example 2: herbicidal effect test by treatment during growing period in paddy rice cultivation (seven days after seeding). The conditions noted are these: 120 g/10a active ingredient, assessed 14 days after treatment, dry weight vs untreated area. In a few lines: (§2)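 Paddy soil in Wagner pots with compound fertilizer, puddled; 30 seeds per species sown at 0–1 cm, flooded ~3 cm, greenhouse. Seven days after seeding, water-diluted emulsions were dropped into the water at 120 g active ingredient per 10 ares. Duplicate pots; herbicidal rate from dry weight versus untreated, 14 days after treatment.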

Experiment [6] concerns broad leaf weeds (Lindernia pyxidaria and Monochoria vaginalis). Described as above. As to conditions: 120 g/10a active ingredient, assessed 14 days after treatment, dry weight vs untreated area. The procedure, abridged: as §2
Experiment [7] deals with Echinochloa crus-galli. The experiment is described as above. The conditions noted are these: 120 g/10a active ingredient, assessed 14 days after treatment, dry weight vs untreated area. In a few lines: as §2
The test system of experiment [8] is Chenopodium album. The experiment is described as follows: Test Example 3: herbicidal effect test by treatment of dry field farming soil (one day after seeding). As to conditions: 120 g/10a active ingredient, evaluated 14 days after treatment. In a few lines:
(§3)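 Pre-emergence soil treatment: alluvial dry-field soil, 20 seeds per species mixed into top 1 cm, emulsion diluted in water sprayed one day after seeding at 100 L per 10 ares (120 g active ingredient per 10 ares). Duplicate pots; herbicidal rate (%) from dry weight vs untreated at 14 days.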

Experiment [9] relates to southern crabgrass. Described as above. The conditions noted are these: 120 g/10a active ingredient, evaluated 14 days after treatment. In a few lines:
as §3

In experiment [10] the test system is Echinochloa crus-galli. The experiment is described as above. The conditions noted are these: 120 g/10a active ingredient, evaluated 14 days after treatment. In a few lines:
as §3

The subject of experiment [11] is Amaranthus viridis. The experiment is described as above. The conditions noted are these: 120 g/10a active ingredient, evaluated 14 days after treatment. In a few lines:
as §3

Experiment [12] has as its system Scirpus juncoides. Briefly: Test Example 1: herbicidal effect test by treatment of rice paddy soil (immediately after seeding). The conditions noted are these: 120 g/10a active ingredient, dry weight vs untreated area, 14 days after treatment. The procedure, abridged: (§4)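 Puddled, fertilized (N:P:K=17:17:17) paddy soil in Wagner pots; seeds sown 0–1 cm deep, flooded to about 3 cm. Emulsifiable formulations diluted in water and dropped into the water immediately after seeding at 120 g active ingredient per 10 ares; greenhouse. Herbicidal rate from dry weight vs untreated at 14 days.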

Experiment [13] relates to broad leaf weeds (Lindernia pyxidaria and Monochoria vaginalis). Described as above. The conditions noted are these: 120 g/10a active ingredient, dry weight vs untreated area, 14 days after treatment. The procedure, abridged:
as §4

In experiment [14] the test system is Echinochloa crus-galli. The description is as above. The conditions noted are these: 120 g/10a active ingredient, dry weight vs untreated area, 14 days after treatment. In a few lines: as §4

In the case of `CCCC(c1ccccc1)n1oc(=O)c(Cc2ccccc2NS(=O)(=O)C(F)(F)F)c1C` (stereo not shown) [Compound 1-212], the “herbicidal effect (herbicidal rate), Chenopodium album” value (“herbicidal effect … Chenopodium album” below) in the experiment on Chenopodium album [1] came to 60%. Also, the “herbicidal effect (herbicidal rate), southern crabgrass” value (shortened to “herbicidal effect … southern crabgrass”) with southern crabgrass [2] turned out to be 90%. The “herbicidal effect (herbicidal rate), Echinochloa crus-galli” value with Echinochloa crus-galli [3] is 90%. Moreover, the “herbicidal effect (herbicidal rate), Amaranthus viridis” value (from here on “herbicidal effect … Amaranthus viridis”) with Amaranthus viridis [4] was 80%. The “Herbicidal rate (%) Scirpus juncoides” value in the experiment on Scirpus juncoides [5] and in the experiment with Scirpus juncoides [12] was 90% each time. Besides, the results for the “Herbicidal rate (%) Lindernia pyxidaria” value in [6] and in experiment [13] were 70% and 90%, respectively. Moreover, the “Herbicidal rate (%) Monochoria vaginalis” value is recorded as 90% in [6] and 80% in experiment [13]. Moreover, the “Herbicidal rate (%) Echinochloa crus-galli” value with Echinochloa crus-galli [7] and with Echinochloa crus-galli [14] was 90% each time. Moreover, the “herbicidal rate, Chenopodium album” value in the experiment on Chenopodium album [8] is recorded as 0%. Moreover, the “herbicidal rate, southern crabgrass” value with southern crabgrass [9] worked out at 90%. Besides, the “herbicidal rate, Echinochloa crus-galli” value in the experiment with Echinochloa crus-galli [10] is on record as 90%. Besides, in the experiment with Amaranthus viridis [11], the “herbicidal rate, Amaranthus viridis” value is on record as 0%.
In the case of `Cc1c(Cc2ccccc2NS(=O)(=O)C(F)(F)F)c(=O)on1C(c1ccccc1)C(C)C` (stereo not shown) [Compound 1-213], the “herbicidal effect … Chenopodium album” value in the experiment with Chenopodium album [1] was 50%. For the same compound, the “herbicidal effect … southern crabgrass” value in the experiment with southern crabgrass [2] was found to be 90%. In addition, the “herbicidal effect (herbicidal rate), Echinochloa crus-galli” value in the experiment with Echinochloa crus-galli [3] is 90%. Further, the “herbicidal effect … Amaranthus viridis” value with Amaranthus viridis [4] came out at 40%. For the same compound, the entries for the “Herbicidal rate (%) Scirpus juncoides” value in the experiment on Scirpus juncoides [5] and in the experiment with Scirpus juncoides [12] were 80% and 90%, respectively. Besides, the results for the “Herbicidal rate (%) Lindernia pyxidaria” value in [6] and in [13] were 70% and 90%, respectively. Besides, the “Herbicidal rate (%) Monochoria vaginalis” value in [6] is reported as 80%; in experiment [13], 90%. Besides, the “Herbicidal rate (%) Echinochloa crus-galli” value in the experiment on Echinochloa crus-galli [7] is 90%; in the experiment on Echinochloa crus-galli [14] it was 100%. For the same compound, the “herbicidal rate, Chenopodium album” value with Chenopodium album [8] amounted to 100%. Further, the “herbicidal rate, southern crabgrass” value in the experiment on southern crabgrass [9] was 100%. In addition, the “herbicidal rate, Echinochloa crus-galli” value in the experiment on Echinochloa crus-galli [10] came to 100%. The “herbicidal rate, Amaranthus viridis” value with Amaranthus viridis [11] worked out at 100%.
Regarding `CCCCC(c1ccccc1)n1oc(=O)c(Cc2ccccc2NS(=O)(=O)C(F)(F)F)c1C` (stereo not shown) [Compound 1-214], the “herbicidal effect … Chenopodium album” value with Chenopodium album [1] is reported as 50%. Also, the “herbicidal effect … southern crabgrass” value in the experiment on southern crabgrass [2] worked out at 50%. The “herbicidal effect (herbicidal rate), Echinochloa crus-galli” value with Echinochloa crus-galli [3] came to 60%. In the experiment on Amaranthus viridis [4], the “herbicidal effect … Amaranthus viridis” value stood at 40%. Besides, the “Herbicidal rate (%) Scirpus juncoides” value turned out to be 80% in the experiment on Scirpus juncoides [5] and 90% with Scirpus juncoides [12]. Also, the figures for the “Herbicidal rate (%) Lindernia pyxidaria” value in experiment [6] and in [13] were 70% and 100%, respectively. Also, the “Herbicidal rate (%) Monochoria vaginalis” value in experiment [6] is listed as 80%; in experiment [13] it was 90%. The results for the “Herbicidal rate (%) Echinochloa crus-galli” value in the experiment on Echinochloa crus-galli [7] and in the experiment on Echinochloa crus-galli [14] were 90% and 100%, respectively. In addition, the “herbicidal rate, Chenopodium album” value with Chenopodium album [8] is given as 90%. Further, in the experiment on southern crabgrass [9], the “herbicidal rate, southern crabgrass” value was 70%. In addition, the “herbicidal rate, Echinochloa crus-galli” value in the experiment on Echinochloa crus-galli [10] is given as 80%. The “herbicidal rate, Amaranthus viridis” value with Amaranthus viridis [11] turned out to be 90%.
As to `CCCCCC(c1ccccc1)n1oc(=O)c(Cc2ccccc2NS(=O)(=O)C(F)(F)F)c1C` (stereo not shown) [Compound 1-215], in the experiment on Chenopodium album [1], the “herbicidal effect … Chenopodium album” value is reported as 40%. For the same compound, the “herbicidal effect … southern crabgrass” value in the experiment with southern crabgrass [2] was found to be 50%. Also, the “herbicidal effect (herbicidal rate), Echinochloa crus-galli” value in the experiment on Echinochloa crus-galli [3] came out at 40%. Besides, the “herbicidal effect … Amaranthus viridis” value with Amaranthus viridis [4] is listed as 50%. The “Herbicidal rate (%) Scirpus juncoides” value in the experiment on Scirpus juncoides [5] and in the experiment with Scirpus juncoides [12] was 90% each time. Also, the “Herbicidal rate (%) Lindernia pyxidaria” value in experiment [6] was determined as 90%; in [13] it was 100%. Besides, the “Herbicidal rate (%) Monochoria vaginalis” value in experiment [6] and in experiment [13] was 80% each time. Also, the “Herbicidal rate (%) Echinochloa crus-galli” value in the experiment with Echinochloa crus-galli [7] stood at 90%; in the experiment on Echinochloa crus-galli [14] it was 100%. Moreover, the “herbicidal rate, Chenopodium album” value in the experiment on Chenopodium album [8] was 40%. Besides, the “herbicidal rate, southern crabgrass” value with southern crabgrass [9] is on record as 50%. In the experiment with Echinochloa crus-galli [10], the “herbicidal rate, Echinochloa crus-galli” value is reported as 50%. Moreover, the “herbicidal rate, Amaranthus viridis” value with Amaranthus viridis [11] was 40%.
`Cc1c(Cc2ccccc2NS(=O)(=O)C(F)(F)F)c(=O)on1C(C)Cc1ccccc1` (stereo not shown) [Compound 1-218]: the “herbicidal effect … Chenopodium album” value in the experiment on Chenopodium album [1] is 40%. Besides, the “herbicidal effect … southern crabgrass” value in the experiment with southern crabgrass [2] is reported as 40%. The “herbicidal effect (herbicidal rate), Echinochloa crus-galli” value in the experiment on Echinochloa crus-galli [3] worked out at 90%. The “herbicidal effect … Amaranthus viridis” value with Amaranthus viridis [4] is given as 60%. Further, the “Herbicidal rate (%) Scirpus juncoides” value in the experiment on Scirpus juncoides [5] and with Scirpus juncoides [12] was 90% throughout. Further, the “Herbicidal rate (%) Lindernia pyxidaria” value in [6] came out at 40%; in experiment [13] it was 90%. Moreover, the results for the “Herbicidal rate (%) Monochoria vaginalis” value in experiment [6] and in experiment [13] were 80% and 90%, respectively. Besides, the “Herbicidal rate (%) Echinochloa crus-galli” value with Echinochloa crus-galli [7] amounted to 90%; in the experiment on Echinochloa crus-galli [14] it was 100%. In addition, in the experiment with Chenopodium album [8], the “herbicidal rate, Chenopodium album” value is given as 40%. Also, the “herbicidal rate, southern crabgrass” value with southern crabgrass [9] amounted to 40%. The “herbicidal rate, Echinochloa crus-galli” value in the experiment with Echinochloa crus-galli [10] is listed as 80%. For the same compound, the “herbicidal rate, Amaranthus viridis” value with Amaranthus viridis [11] came to 40%.
Regarding `Cc1c(Cc2ccccc2NS(=O)(=O)C(F)(F)F)c(=O)on1CC(C)c1ccccc1` (stereo not shown) [Compound 1-219], in the experiment on Chenopodium album [1], the “herbicidal effect … Chenopodium album” value was 0%. For the same compound, the “herbicidal effect … southern crabgrass” value in the experiment with southern crabgrass [2] was found to be 60%. Also, the “herbicidal effect (herbicidal rate), Echinochloa crus-galli” value in the experiment with Echinochloa crus-galli [3] came to 90%. For the same compound, the “herbicidal effect … Amaranthus viridis” value with Amaranthus viridis [4] was found to be 40%. For the same compound, the “Herbicidal rate (%) Scirpus juncoides” value in the experiment with Scirpus juncoides [5] and in the experiment on Scirpus juncoides [12] was 90% throughout. Moreover, the “Herbicidal rate (%) Lindernia pyxidaria” value is 40% in [6] and 90% in experiment [13]. Further, the “Herbicidal rate (%) Monochoria vaginalis” value in [6] was 70%; in experiment [13], 80%. The “Herbicidal rate (%) Echinochloa crus-galli” value was 90% with Echinochloa crus-galli [7] and 100% with Echinochloa crus-galli [14]. In the experiment with Chenopodium album [8], the “herbicidal rate, Chenopodium album” value came to 40%. For the same compound, in the experiment on southern crabgrass [9], the “herbicidal rate, southern crabgrass” value is 80%. The “herbicidal rate, Echinochloa crus-galli” value in the experiment with Echinochloa crus-galli [10] was 90%. In the experiment on Amaranthus viridis [11], the “herbicidal rate, Amaranthus viridis” value turned out to be 90%.
In the case of `Cc1c(Cc2ccccc2NS(=O)(=O)C(F)(F)F)c(=O)on1C1CCc2ccccc21` (stereo not shown) [Compound 1-222], the “herbicidal effect … Chenopodium album” value in the experiment on Chenopodium album [1] was found to be 50%. The “herbicidal effect … southern crabgrass” value in the experiment with southern crabgrass [2] is on record as 80%. In addition, the “herbicidal effect (herbicidal rate), Echinochloa crus-galli” value in the experiment on Echinochloa crus-galli [3] came to 70%. The “herbicidal effect … Amaranthus viridis” value in the experiment on Amaranthus viridis [4] stood at 40%. The “Herbicidal rate (%) Scirpus juncoides” value in the experiment on Scirpus juncoides [5] and in the experiment with Scirpus juncoides [12] was 90% each time. Moreover, the “Herbicidal rate (%) Lindernia pyxidaria” value in [6] and in [13] was 90% each time. Further, the “Herbicidal rate (%) Monochoria vaginalis” value in experiment [6] and in experiment [13] was 90% each time. Besides, the “Herbicidal rate (%) Echinochloa crus-galli” value in the experiment on Echinochloa crus-galli [7] is given as 90%; in the experiment on Echinochloa crus-galli [14], 100%. In the experiment on Chenopodium album [8], the “herbicidal rate, Chenopodium album” value came out at 100%. Further, in the experiment with southern crabgrass [9], the “herbicidal rate, southern crabgrass” value is given as 100%. In the experiment with Echinochloa crus-galli [10], the “herbicidal rate, Echinochloa crus-galli” value came to 100%. Besides, in the experiment on Amaranthus viridis [11], the “herbicidal rate, Amaranthus viridis” value was 100%.
